Reference: patent US8053627B2, “Methods for treating demyelination disorders” (University of Chicago, priority 2005, dated 2011)

System: oligodendrocytes and myelin
Test: IFN-γ-overexpressing mice crossed to PLP/SOCS1 mice, clinical and histological evaluation at postnatal day 21
Type: in vivo
Conditions: for oligodendrocyte density: corpus callosum, postnatal day 21; for G ratio (axon diameter/fiber diameter ratio): hypomyelination defined as G ratio>0.8
Description: IFN-γ-overexpressing mice were crossed to the PLP/SOCS1 mice in double-transgenic, (MBP/IFN-γ×PLP/SOCS1) and triple-transgenic (GFAP/tTA×TRE/IFN-γ×PLP/SOCS1) mating systems. MBP/IFN-γ×PLP/SOCS1 (172×PLP/SOCS1) mating was performed according to a standard mating protocol. The GFAP/tTA×TRE/IFN-γ×PLP/SOCS1 matings were performed in a 2-step mating process: GFAP/tTA mice were initially crossed to PLP/SOCS1 mice, and double-positive (184×PLP/SOCS1) offspring were then crossed to the TRE/IFN-γ lines 110 and 67, separately. This second mating step was performed according to the previously described “tet-off” protocol. Doxycycline 0.05 mg/ml (Sigma-Aldich) was added to the water of impregnated female mice until embryonic day 14, after which the animals were switched back to normal water, thereby allowing initiation of IFN-γ transcription, which peaks during the postnatal period (Lin et al., 2005).
The litters of the mating systems (F1 generation) were examined daily and sacrificed at postnatal day 21. Clinical evaluation included behavioral observation and challenged ladder walking to elicit tremor. Histological examination included quantitation of the number and density of oligodendrocytes and examination of the myelination patterns. Brain tissue was simultaneously obtained from each animal at the time of sacrifice to verify and measure the expression of IFN-γ and Flag-SOCS1 (see below). The clinical and histological findings were subsequently stratified according to genotype. All animal procedures were conducted in compliance with the National Institutes of Health Guide for Care and Use of Laboratory Animals and were approved by the Institutional Animal Care and Use Committee at The University of Chicago.
Oligodendrocyte cell density was assessed digitally using Axiovision software, at postnatal day 21, as previously described (Lin et al., 2005). The brains were sectioned sagittally through the corpus callosum dividing the brain in two symmetrical halves. Ten frozen sections from each half were prepared at 7 μm thickness, and numbered in the sequence of their preparation. The brains of three animals per study group were prepared in this fashion. Following the CC1 immunostaining the corresponding area of corpus callosum of each section was digitally selected and the corresponding total area obtained. CC1 cell counting was performed manually within the selected areas of each section, and the number of CC1 positive cells per square area (mm^2) calculated. The results were presented as mean±SD of CC1 (+) cells/mm^2 with n=3 animals per study group.
Myelination patterns of the examined animals were assessed at postnatal day 21 by calculating the percent unmyelinated axons and ratio of the axon/fiber diameters (G ratio) with Image J software (National Institutes of Health, Bethesda, Md.) as previously described (Lin at al., 2005). The brains were sectioned sagittally through the corpus callosum dividing the brain in two symmetrical halves. Approximately 2 mm^3 samples from the genu and the splenum of both halves of corpus callosum were obtained using a Wild M3C stereotype microscope. The orientation of the specimen in the resin blocks yielding axonal cross-sections (well seen myelin rings) was chosen, and established by toluedine blue staining of a few sample sections. The resin blocks with the chosen orientation were processed for electron microscope examination. Randomly selected areas were examined and ten representative pictures from both genu and splenum corpus callosum were obtained at 12000× magnification. The number of unmyelinated axons was assessed by manual counting of axons that lacked myelin and were encircled solely by their own plasma membrane. All unmyelinated axons present in the representative images were counted, and their percentage calculated by examining a total of five hundred axons per tissue sample. […]

IFN-γ: pleotropic cytokine secreted by activated T lymphocytes and natural killer cells; delivered to the CNS by transgene or added as recombinant protein
Incidence of tremor (172 × PLP/SOCS1 littermates, ten mice per group): 0% | oligodendrocytes lost (184/67 system): approximately 40% | percentage of unmyelinated axons (184/67 system): 57±7% | oligodendrocyte density (184/67 system): 79±9 CC1 (+) cells/mm^2 | G ratio (axon diameter/fiber diameter ratio) (184/67 system): 0.95±0.04 | oligodendrocytes lost (184/110 system): approximately 20% | percentage of unmyelinated axons (184/110 system): 41%±6 | oligodendrocyte density (184/110 system): 115±8 CC1 (+) cells/mm^2 | G ratio (axon diameter/fiber diameter ratio) (184/110 system): 0.89±0.02 | MHC class I molecule expression (immunostaining) (MBP/IFN-γ and MBP/IFN-γ×PLP/SOCS1 brains): upregulated expression
